Source: patent US10294202B2, “Pyrrolidinones as herbicides” (FMC Corporation, priority 2013, dated 2019)

Key:
barnyardgrass [1] = test: Test A pre-/postemergence herbicide test; assay type: in vivo, Echinochloa crus-galli
In short: (§1)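 Scoring was visual, relative to untreated controls, on a 0–100 scale after about 10 greenhouse days. Preemergence treatment used a directed soil spray over seeded loam/sand; postemergence treatment targeted one- to two-leaf plants of 2–10 cm.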

crabgrass, large = test: Test A pre-/postemergence herbicide test; assay type: in vivo, Digitaria sanguinalis
In short: as §1

giant foxtail = test: Test A pre-/postemergence herbicide test; assay type: in vivo, Setaria faberii
In short: as §1

morningglory = test: Test A pre-/postemergence herbicide test; assay type: in vivo, Ipomoea spp.
In short: as §1

pigweed = test: Test A pre-/postemergence herbicide test; assay type: in vivo, Amaranthus retroflexus
In short: as §1

velvetleaf = test: Test A pre-/postemergence herbicide test; assay type: in vivo, Abutilon theophrasti
In short: as §1

wheat = test: Test A pre-/postemergence herbicide test; assay type: in vivo, Triticum aestivum
In short: as §1

corn = test: Test A pre-/postemergence herbicide test; assay type: in vivo, Zea mays
In short: as §1

rice = test: Test C flooded paddy test; assay type: in vivo, Oryza sativa; conditions: Flood
In short: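 Visual injury scored against controls after 13 to 15 days in the greenhouse, using 0 (no effect) to 100 (complete control). Test compounds went straight into paddy water held 3 cm above the soil surface on 2-leaf-stage plants, with that flood depth maintained for the whole test.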

sedge, umbrella = test: Test C flooded paddy test; assay type: in vivo, Cyperus difformis; conditions: Flood
Description: (§2) Plant species in the flooded paddy test consisted of rice (Oryza sativa), sedge, umbrella (small-flower umbrella sedge, Cyperus difformis), ducksalad (Heteranthera limosa), and barnyardgrass (Echinochloa crus-galli) grown to the 2-leaf stage for testing. At time of treatment, test pots were flooded to 3 cm above the soil surface, treated by application of test compounds directly to the paddy water, and then maintained at that water depth for the duration of the test. Treated plants and controls were maintained in a greenhouse for 13 to 15 days, after which time all species were compared to controls and visually evaluated. Plant response ratings, summarized in Table C, are based on a scale of 0 to 100 where 0 is no effect and 100 is complete control. A dash (-) response means no test result.

ducksalad = test: Test C flooded paddy test; assay type: in vivo, Heteranthera limosa; conditions: Flood
Description: as §2

barnyardgrass [2] = test: Test C flooded paddy test; assay type: in vivo, Echinochloa crus-galli; conditions: Flood
Description: as §2

[3] = Postemergence, 1000 g ai/ha, 0 to 100 scale (0 no effect, 100 complete control)
[4] = Preemergence, 1000 g ai/ha, visual rating on 0 to 100 scale (0 no effect, 100 complete control), approx. 10 days
[5] = 62 g ai/ha, scale of 0 to 100 where 0 is no effect and 100 is complete control, 13 to 15 days
[6] = Postemergence, 125 g ai/ha, 0 to 100 scale, 0 no effect, 100 complete control
[7] = Postemergence, 500 g ai/ha, 0 to 100 scale (0 no effect, 100 complete control)
[8] = Preemergence, 125 g ai/ha, visual rating on 0 to 100 scale (0 no effect, 100 complete control)
[9] = preemergence, 500 g ai/ha, 0 to 100 scale
[10] = 31 g ai/ha, scale of 0 to 100 where 0 is no effect and 100 is complete control, 13 to 15 days
[11] = 125 g ai/ha, scale of 0 to 100 where 0 is no effect and 100 is complete control, 13 to 15 days

For `O=C1NCC(c2ccc(Cl)c(Cl)c2)C1C(=O)Nc1ccccc1C(F)(F)F` (racemic) [Compound 26], the “Plant response rating, Barnyardgrass” value (barnyardgrass [1]; [3]) was 70, the “Plant response rating, Barnyardgrass” value (barnyardgrass [1]; [4]) was 70 and the “Plant response rating, Crabgrass, Large” value (crabgrass, large; [3]) was 60. For the same compound, the “Plant response rating, Crabgrass, Large” value (crabgrass, large; [4]) was 90, the “Plant response rating, Foxtail, Giant” value (giant foxtail; [3]) was 70 and the “Plant response rating, Foxtail, Giant” value (giant foxtail; [4]) was 90. For the same compound, the “Plant response rating, Morningglory” value (morningglory; [3]) was 0, the “Plant response rating, Morningglory” value (morningglory; [4]) was 0 and the “Plant response rating, Pigweed” value (pigweed; [3]) was 0. For the same compound, the “Plant response rating, Pigweed” value (pigweed; [4]) was 0, the “Plant response rating, Velvetleaf” value (velvetleaf; [3]) was 0 and the “Plant response rating, Velvetleaf” value (velvetleaf; [4]) was 0. The “Plant response rating, Wheat” value (wheat; [3]) was 0, the “Plant response rating, Wheat” value (wheat; [4]) was 0 and the “Plant response rating, Corn” value (corn; [3]) was 0. For the same compound, the “Plant response rating, Corn” value (corn; [4]) was 0, the “Plant response rating, Rice” value (rice; [5]) was 0 and the “Plant response rating, Rice” value (rice; 250 g ai/ha, scale 0 to 100) was 0. The “Plant response rating, Sedge, Umbrella” value (sedge, umbrella; [5]) was 0, the “Plant response rating, Sedge, Umbrella” value (sedge, umbrella; 250 g ai/ha, scale 0 to 100) was 0 and the “Plant response rating, Ducksalad” value (ducksalad; [5]) was 0. The “Plant response rating, Ducksalad” value (ducksalad; 250 g ai/ha, scale 0 to 100) was 80, the “Plant response rating, Barnyardgrass” value (barnyardgrass [2]; [5]) was 0 and the “Plant response rating, Barnyardgrass” value (barnyardgrass [2]; 250 g ai/ha, scale 0 to 100) was 0.
`O=C1NCC(c2cccc(F)c2)C1C(=O)Nc1ccccc1F` (racemic) [Compound 1] was tested, and the “Plant response rating, Barnyardgrass” value (barnyardgrass [1]; [6]) was 50, the “Plant response rating, Barnyardgrass” value (barnyardgrass [1]; [7]) was 80 and the “Barnyardgrass plant response rating” value (barnyardgrass [1]; [8]) was 30. For the same compound, the “Plant response rating, Barnyardgrass” value (barnyardgrass [1]; preemergence, 500 g ai/ha, 0 to 100 scale (0 no effect, 100 complete control)) was 90, the “Plant response rating, Crabgrass, Large” value (crabgrass, large; [6]) was 30 and the “Plant response rating, Crabgrass, Large” value (crabgrass, large; [7]) was 80. The “Crabgrass, Large plant response rating” value (crabgrass, large; [8]) was 90, the “Plant response rating, Crabgrass, Large” value (crabgrass, large; [9]) was 90 and the “Plant response rating, Foxtail, Giant” value (giant foxtail; [6]) was 20. For the same compound, the “Plant response rating, Foxtail, Giant” value (giant foxtail; [7]) was 60, the “Foxtail, Giant plant response rating” value (giant foxtail; [8]) was 70 and the “Plant response rating, Foxtail, Giant” value (giant foxtail; [9]) was 90. For the same compound, the “Plant response rating, Morningglory” value (morningglory; [7]) was 0, the “Morningglory plant response rating” value (morningglory; [8]) was 0 and the “Plant response rating, Morningglory” value (morningglory; [9]) was 0. The “Plant response rating, Pigweed” value (pigweed; [7]) was 0, the “Pigweed plant response rating” value (pigweed; [8]) was 0 and the “Plant response rating, Pigweed” value (pigweed; [9]) was 0. The “Plant response rating, Velvetleaf” value (velvetleaf; [7]) was 0, the “Velvetleaf plant response rating” value (velvetleaf; [8]) was 0 and the “Plant response rating, Velvetleaf” value (velvetleaf; [9]) was 0. The “Plant response rating, Wheat” value (wheat; [7]) was 0, the “Wheat plant response rating” value (wheat; [8]) was 0 and the “Plant response rating, Wheat” value (wheat; [9]) was 0. The “Plant response rating, Corn” value (corn; [6]) was 0, the “Plant response rating, Corn” value (corn; [7]) was 0 and the “Corn plant response rating” value (corn; [8]) was 0. The “Plant response rating, Corn” value (corn; [9]) was 20, the “Plant response rating, Rice” value (rice; [10]) was 0 and the “Plant response rating, Rice” value (rice; [5]) was 0. For the same compound, the “Plant response rating, Rice” value (rice; [11]) was 0, the “Plant response rating, Rice” value (rice; 250 g ai/ha, scale 0 to 100) was 0 and the “Plant response rating, Sedge, Umbrella” value (sedge, umbrella; [10]) was 0. For the same compound, the “Plant response rating, Sedge, Umbrella” value (sedge, umbrella; [5]) was 0, the “Plant response rating, Sedge, Umbrella” value (sedge, umbrella; [11]) was 0 and the “Plant response rating, Sedge, Umbrella” value (sedge, umbrella; 250 g ai/ha, scale 0 to 100) was 0. The “Plant response rating, Ducksalad” value (ducksalad; [10]) was 0, the “Plant response rating, Ducksalad” value (ducksalad; [5]) was 0 and the “Plant response rating, Ducksalad” value (ducksalad; [11]) was 0. The “Plant response rating, Ducksalad” value (ducksalad; 250 g ai/ha, scale 0 to 100) was 0, the “Plant response rating, Barnyardgrass” value (barnyardgrass [2]; [10]) was 0 and the “Plant response rating, Barnyardgrass” value (barnyardgrass [2]; [5]) was 0. For the same compound, the “Plant response rating, Barnyardgrass” value (barnyardgrass [2]; [11]) was 0 and the “Plant response rating, Barnyardgrass” value (barnyardgrass [2]; 250 g ai/ha, scale 0 to 100) was 0.
